Measurements published in patent US9562076B2, “Hydrophobic modified pres-derived peptides of hepatitis B virus (HBV) and their use as HBV and HDV entry inhibitors” (priority 2008, dated 2017).
pIC50: −log10 of the molar value. Ends that are not written are not given here.

System: HBV of genotype D
Assay type: cell-based, hepatitis B virus
Conditions: for IC90: HepaRG cells, HBV genotype D inoculum, HBsAg, Table 1
Procedure: HepaRG cells were grown in William's E medium supplemented with 10% fetal calf serum (FCS), 100 units/ml penicillin, 100 μg/ml streptomycin, 5 μg/ml insulin and 5×10^−5 M hydrocortisone hemisuccinate (16). Cells were passaged 1/5 every two weeks by trypsination. Two to three weeks before infection cell differentiation was induced by adding 2% DMSO into the maintenance medium. The medium was exchanged every 2-3 days.
As an infectious inoculum, a 50-fold concentrated culture supernatant of HepG2 clone 2.2.15 (23) cells was used, because of an unlimited supply and a constant quality. It was prepared from freshly collected supernatants by precipitating viral particles in the presence of 6% polyethylene glycol (PEG) 8000. The pellet was resuspended in phosphate buffered saline (PBS) containing 25% FCS. Aliquots were stored at −80° C. Differentiated HepaRG cells or PHH were incubated with the concentrated infectious source, 10-fold diluted in culture medium supplemented with 4% PEG 8000 (Sigma), for 20 h at 37° C. At the end of the incubation, cells were washed three times with the culture medium and maintained in the presence of 2% DMSO and 5×10^−5 M hydrocortisone hemisuccinate and harvested at indicated times.
Competition experiments were performed in 12-well plates. Approximately 1×10^6 cells were first pre-incubated for 30 min with chemically synthesized HBV derived peptides followed by a co-incubation of cells with peptide and virus for 20 h. All competition series were performed at least twice and the results of one representative experiment are shown in each case (see FIGS. 3 to 7).
HepaRG cells were infected either in absence (0 nM) or in the presence of • 1, 5, 25, 100 and 2000 nM of • HBVpreS/2-48^myr(D), • HBVpreS/2-48^myr(C), • HBVpreS/(−11)-48^myr(C), • HBVpreS/2-48^stearoyl(C) and • HBVpreS/(−11)-48^stearoyl(C); or • 0.125; 0.25; 0.5; 0.75 and 1 nM of • HBVpreS/2-48^myr(consensus), • HBVpreS/2-48^stearoyl(consensus), • 1, 5, 25, 100 and 1000 nM of • HBVpreS/2-48^stearoyl(D), • HBVpreS/2-15^stearoyl(D), • HBVpreS/2-21^stearoyl(D), • HBVpreS/2-26^stearoyl(D) and • HBVpreS/2-33^stearoyl(D); or • 1, 5, 25, 100 and 1000 nM of • HBVpreS/2-48^stearoyl(D), • HBVpreS/2-33^stearoyl(D), • HBVpreS/5-33^stearoyl(D), • HBVpreS/5-48^stearoyl(D), • HBVpreS/9-33^stearoyl(D) and • HBVpreS/9-48^stearoyl(D); or • 1, 5, 25, 100 and 1000 nM of • HBVpreS/2-48^stearoyl(D), • HBVpreS/2-48^stearoyl(D-AS^11-15)(D), • HBVpreS/2-48^stearoyl(Ala^11-15)(D), • HBVpreS/2-48^stearoyl(Δ17-21)(D), • HBVpreS/2-48^stearoyl(Ala^17-21)(D); or • 1, 5, 25, 100 and 1000 nM of • HBVpreS/2-48^stearoyl(retroinverso)(D) and • HBVpreS/2-48^stearoyl(Ala^21,23,29,30)(D); or • 1, 5, 25, 100 and 1000 nM of • HBVpreS/2-48^stearoyl(Ala^18)(D), • HBVpreS/2-48^stearoyl(Δ11-15)(D), • HBVpreS/2-48^stearoyl(Ser^13)(D), • HBVpreS/2-48^stearoyl(Arg^11)(D).; or • 50, 100, 150, 250 and 1000 pM […] of • HBVpreS/2-48^myr(C) and • HBVpreS/2-48^stearoyl(C), wherein (C) refers to HBV genotype C Q46K.
The infectious inoculum (HBV of genotype D) and the peptides were incubated overnight. After washing, cells were maintained for another 12 days to allow viral gene expression. Cell culture supernatants from day 8-12 were collected and analyzed for secreted HBSAg using a quantitative commercially available ELISA. HBsAg values from the respective uncompleted infection were set to 100% and the degree of infection inhibition is given in % of the uncompleted infection.

Compound	pIC50 (of genotype D)	inhibition of the entry of HBV genotype D by a genotype C derived peptide (cross prevention)	IC90
CCCCCCCCCCCCCCCCCC(=O)NCC(=O)N[C@@H](CCC(N)=O)C(=O)N[C@@H](CC(N)=O)C(=O)N[C@@H](CC(C)C)C(=O)N[C@@H](CO)C(=O)N[C@H](C(=O)N[C@@H](CO)C(=O)N[C@@H](CC(N)=O)C(=O)N1CCC[C@H]1C(=O)N[C@@H](CC(C)C)C(=O)NCC(=O)N[C@@H](Cc1ccccc1)C(=O)N[C@@H](Cc1ccccc1)C(=O)N1CCC[C@H]1C(=O)N[C@@H](CC(=O)O)C(=O)N[C@@H](Cc1c[nH]cn1)C(=O)N[C@@H](CCC(N)=O)C(=O)N[C@@H](CC(C)C)C(=O)N[C@@H](CC(=O)O)C(=O)N1CCC[C@H]1C(=O)O)[C@@H](C)O [HBVpreS/2-21^stearoyl]	~8.10		
HBVpreS/2-21^stearoyl(C): stearoylated residues 2 to 21 of genotype C, SEQ ID NO. 13 (GTNLSVPNPLGFFPDHQLDP; not fully specified (N-terminus); also: stearoyl)		can inhibit the entry of HBV genotype D	
HBVpreS/2-48^myr(C)		can inhibit the entry of HBV genotype D	~5 nM
HBVpreS/2-48^stearoyl(C)			~1 nM
HBVpreS/2-48^stearoyl(D): stearoylated residues 2 to 48 of genotype D, SEQ ID NO. 16			~3 nM
